# From paper PMC8344021, “Discovery of Small Molecule Bak Activator for Lung Cancer Therapy” (Theranostics, 2021)
# Test system: A549 cells
# Assay: Apoptotic cell death assay (Annexin V/PI)
# Type: cell-based, human
# Excerpt: Supplemental Materials and Methods
# Small molecule NSC14073 (BKA-073) was obtained from the Drug Synthesis and Chemistry Branch, Developmental Therapeutic Program, Division of Cancer Treatment and Diagnosis, National Cancer Institute (NCI, Bethesda, MD) (http://dtp.nci.nih.gov/RequestCompounds).
# Venetoclax (ABT-199, 205807) was purchased from MedKoo Biosciences (Morrisville, NC).
# Antibodies including PARP (sc-8007), Bax (sc-7480), Mcl-1 (sc-12756), cytochrome c (sc-13156) and actin (sc-47778) were purchased from Santa Cruz (Santa Cruz, CA). Bcl2 antibody (05-826) was obtained from Calbiochem (Darmstadt, Germany). Bcl-XL (ab32370), Bak (ab32371) and Bax (ab104156) antibodies were purchased from Abcam (Cambridge, MA).
# Active caspase 3 (9579S) and Mcl-1 (94296S) antibodies were purchased from Cell Signaling Technology (Danvers, MA). Fluorescent Bak BH3 domain peptide (FAM-GQVGRQLAIIGDDINR) and purified Bcl-XL protein were purchased from NeoBioSciTM (Cambridge, MA). Bim BH3 peptide (AS-62278) was obtained from AnaSpec, Inc. (Fremont, CA). Purified recombinant human Bak protein (BAK1-26166TH) was purchased from Creative Biomart (Shirley, NY). Purified recombinant human Bax protein (H00000581-P01) was obtained from Novus Biologicals (Littleton, CO) and purified human Bcl-XL protein (SRP0187) was purchased from Sigma-Aldrich (St. Louis, MO). Purified human Bcl2 protein was obtained from ProteinX Lab (San Diego, CA). Purified recombinant human Mcl-1 protein (GWB-P0342D) was purchased from GenWay Biotech, Inc. (San Diego, CA). Purified recombinant human Bcl-w (824-BW-050) protein was obtained from R&D systems (Minneapolis, MN). Bis (maleimido) hexane (BMH) (22330) was purchased from Thermo Scien tific (Rockford, IL). JC -1 (ENZ-52304) was obtained from Enzo Life Sciences, Inc. (Farmingdale, NY). All other reagents used were obtained from commercial sources unless otherwise stated. […]
# Apoptotic cell death assay
# Apoptotic cells were detected using Annexin-V Apoptosis Detection Kit (556547, BD Biosciences, San Jose, CA) according to the manufacturer’s instructions. After treatment with BKA-073 or other agent(s) for 72h, cells were washed twice with cold 1x PBS and then resuspended in 1 x Binding Buffer at a concentration of 1 x 10^6 cells/ml. 100 μl of the solution […]
# (1 x 10^5 cells) was transferred to a 5 ml culture tube, followed by the addition of 5 μl of FITC Annexin V and 5 μl propidium iodide (PI). The cells were gently vortexed and incubated for 15 min at RT (25°C) in the dark. 400 μl of 1x binding buffer was added to each tube. […]
# mM DTT] in black 96-well microplates. The plate was mixed o n a shaker for 1 minute and incubated at room temperature for an additional 15 minutes. The FP values (in millipolarization units) were measured using a fluorescence microplate reader at 485/530 nm (Gemini XPS, Molecular Devices). Data analysis and inhibit ory constant (Ki) value was determined by GraphPad prism software as described.
# Cloning, protein expression and purification of mouse B ak protein
# The clone pMIH-mRuby2-mouse Bak (#111627) for generation of mouse Bak protein was obtained from Addgene (Watertown, MA). The mouse Bak cDNA was cloned into pET29b expression vector between BglII and XhoI sites as His tag fusions. The BL21 DE3 Escherichia coli containing plasmid was grown at 37°C in LB (Luria-Bertani) media. The protein expression was induced with IPTG (0.2 mM) at 18°C for 16 h when the density reached an OD600 of 0.6.
# Bacteria were then harvested and resuspended in 30 ml buffer A (20 mM Tris, pH 8.0, 120 mM NaCl, 10% glycerol, and protease inhibitor cocktail) and lysed by sonication. The lysate was centrifuged at 14,000 rpm for 30 min. The resulting supernatant was incubated with HisPur Cobalt Resin (Thermo Scientific) at 4 °C for 2h. After washing wi th buffer A, His-tagged mouse Bak proteins was eluted with buffer B (20 mM Tris, pH 8.0, 120 mM NaCl, 300 mM imidazole, 10% glycerol with protease inhibitor). The elution peak of interest was checked by SDS -PAGE […]
smiles,measurement,setting,value
COc1ccc2nc3ccccc3c(NCCNCC(C)O)c2c1 (centres unmarked) [BKA-073],induction of apoptotic cell death,"0, 0.25, 0.5, 0.75, 1.0 µM, 72h",in a dose-dependent manner
same,sensitivity (DBP and apoptosis),"A549 Bak-/- cells expressing A79E Bak, 1 µM",completely or partially restored sensitivity
same,sensitivity (DBP and apoptosis),"A549 Bak-/- cells expressing D83E Bak, 1 µM",failed to restore sensitivity
same,sensitivity (DBP and apoptosis),"A549 Bak-/- cells expressing I80E Bak, 1 µM",completely or partially restored sensitivity
same,sensitivity (DBP and apoptosis),"A549 Bak-/- cells expressing N86E Bak, 1 µM",failed to restore sensitivity
same,sensitivity (DBP and apoptotic cell death),"A549 Bak-/- cells expressing exogenous WT Bak, 1 µM",restored sensitivity
same,sensitivity (DBP and apoptotic cell death),"A549 Bak-/- cells expressing ΔBH3 mutant Bak, 1 µM",failed to restore sensitivity
same,sensitivity (DBP and apoptotic cell death),"A549 Bak-/- cells transfected with vector-only, 1 µM",resistant
same,apoptotic cell death,Bak-/- A549 cells,~ 20%
same,sensitivity (DBP and apoptotic cell death),"Bak-/- A549 cells, 1μM, 16h or 72h",significant resistance
same,sensitivity (DBP and apoptotic cell death),"Bax-/- A549 cells, 1μM, 16h or 72h",sensitive
same,apoptotic cell death,DKO A549 cells,~ 20%
same,sensitivity (DBP and apoptotic cell death),"DKO A549 cells, 1μM, 16h or 72h",significant resistance
same,sensitivity (DBP and apoptotic cell death),"parental A549 cells, 1μM, 16h or 72h",sensitive
